3 compounds from patent publication US20190375723A1, “New Naphtho[2,3-B]Furan Derivatives” (Boston Biomedical, Inc., priority 2016, published 2019) can be followed below.

In experiment [1] the test system is HCT-116 cells. Kind of experiment: Proliferation inhibition assay of cancer cells. It is filed as cell-based. Particulars: Homo sapiens, 96 h, adherent culture with 10% FBS, cultured for 4 days, Cell Titer-Glo, read-out: IC50 (μM) HCT (Bulk IC50 value). As to the method:
HCT-116 cells were obtained from American Type Culture Collection (ATCC). HCT-116 cells were cultured at 37° C. in the presence of 5% CO2 using McCoy's 5a medium containing 10% fetal bovine serum (FBS) and 1% penicillin/streptomycin. After cells were seeded at 300-600 cells/well onto μClear-plate black 384 well (Greiner bio-one Cat. No. 781091), a test substance was added such that the final concentration of DMSO is 0.1%, and cultured for 4 days. The number of living cells was then counted using Cell Titer-Glo (registered trademark) Luminescent Cell Viability Assay (Promega) to calculate a concentration for 50% inhibition of cell proliferation of respective test substances (Bulk IC50 value; μM).

Experiment [2] has as its system HCT-116 cells. The experiment is described as follows: Inhibition assay of cancer cell sphere-forming ability. It is filed as cell-based. Conditions: Homo sapiens, 96 h, ultra-low attachment plate, serum-free DMEM/F12 with B27, EGF, bFGF, insulin, cultured for 4 days, Cell Titer-Glo. As for the experimental part:
HCT-116 cells were obtained from American Type Culture Collection (ATCC). HCT-116 cells were cultured at 37° C. in the presence of 5% CO2 using McCoy's 5a medium containing 10% fetal bovine serum (FBS) and 1% penicillin/streptomycin. The HCT-116 cells were seeded onto 384 Well Black Clear Bottom Ultra-Low Attachment Microplate (Corning Cat. No. 3827) using DMEM/F12 medium containing 2% B27 supplement (GIBCO), 20 ng/mL epidermal growth factor (EGF) (peprotech), 10 ng/mL basic fibroblast growth factor (bFGF) (peprotech), 5 μg/mL insulin (Sigma), and 1% penicillin/streptomycin to be 350-800 cells/well. A test substance was added so that the final concentration of DMSO is 0.1%, and then cultured for 4 days. The number of living cells was then counted using Cell Titer-Glo (registered trademark) Luminescent Cell Viability Assay (Promega) to calculate the concentration for 50% inhibition of cell proliferation of respective test substances (Sphere IC50 value; μM) (this test is a method which evaluates the functions of cancer stem cells (see Non Patent Literature 4)).

Each structure is given as a SMILES string.

As for `CC(=O)c1cc2c(o1)C(=O)c1c(Cl)ccc(O)c1C2=O` [Example 1, 2-Acetyl-8-chloro-5-hydroxynaphtho[2,3-b]furan-4,9-dione], the IC50 – broadly, the concentration that gives 50% inhibition – in the experiment on HCT-116 cells [1] was 0.63 µM; in the experiment with HCT-116 cells [2] it was 0.24 µM.
As to `CC(=O)c1cc2c(o1)C(=O)c1ccc(Br)c(O)c1C2=O` [Example 2, 2-Acetyl-6-bromo-5-hydroxynaphtho[2,3-b]furan-4,9-dione], the IC50 with HCT-116 cells [1] was 0.63 µM; in the experiment with HCT-116 cells [2], 5.12 µM.
For the compound `CC(=O)c1cc2c(o1)C(=O)c1c(ccc(Br)c1O)C2=O` [Example 3, 2-Acetyl-7-bromo-8-hydroxynaphtho[2,3-b]furan-4,9-dione], the IC50 with HCT-116 cells [1] was determined as 4.93 µM; in the experiment with HCT-116 cells [2] it was 6.39 µM.
